Measured values taken from PubChem BioAssay AID624405 (Broad Institute, 2012).
Results filed as inconclusive are left out.

Test system: C2C12 myotubes + simvastatin, ATP luminescence, 48 h
Assay: rescue of simvastatin-induced ATP loss – cell-based, C2C12 myotubes, ATP luminescence, cherry pick, dose response (AID 624405);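 note: myotubes are challenged with simvastatin at 10 µM to lower ATP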

| Structure (SMILES) | AC40 |
| --- | --- |
| C[C@H]1CN([C@@H](C)CO)S(=O)(=O)c2ccc(C#Cc3ccc(F)cc3)cc2O[C@@H]1CN(C)S(=O)(=O)c1cn(C)cn1 | 5.96 µM |
| COc1ccc(-n2c(C)cc(C=O)c2C)cc1Cl | 9.14 µM |
| CCN1C(=O)NC2=C(C(=O)c3ccccc32)C1c1ccccc1F (centres undefined) | 5.31 µM |
| C[C@H]1CN([C@@H](C)CO)C(=O)Cc2cc(NC(=O)CCCCCC(=O)Nc3ccccc3N)ccc2O[C@H]1CN(C)Cc1ccc(-c2ccccc2)cc1 | 7.68 µM |
| C[C@@H]1CN([C@H](C)CO)C(=O)c2cc(NC(=O)Nc3cccc4ccccc34)ccc2O[C@H]1CN(C)Cc1ccc(C(=O)Nc2ccccc2N)cc1 | 17 µM |
| Fc1ccccc1OCCCCn1cncn1 | 18.6 µM |
| O=C(C[C@H]1CC[C@@H]2[C@H](COC[C@H](O)CN2CCC(F)(F)F)O1)NCc1ccc(Oc2ccccc2)cc1 | 7.6 µM |
| Cc1noc(C)c1S(=O)(=O)Nc1ccc2c(c1)CC(=O)N([C@H](C)CO)C[C@@H](C)[C@@H](CN(C)Cc1ccc(-c3ccccc3)cc1)O2 | 3.64 µM |
| CCCCCCn1c(C(C)O)nc2ccccc21 (centres undefined) | 1.94 µM |
| C[C@H](CO)N1C[C@H](C)[C@@H](CN(C)Cc2ccc(Cl)c(Cl)c2)Oc2ccc(NC(=O)Cc3cn(C)c4ccccc34)cc2CC1=O | 7.35 µM |
| C[C@@H]1CN([C@@H](C)CO)C(=O)c2cc(NS(=O)(=O)c3ccc(Cl)cc3)ccc2O[C@H]1CN(C)C(=O)Nc1cccc2ccccc12 | 9.49 µM |
| Cc1ccc(S(=O)(=O)Nc2ccc3c(c2)CC(=O)N([C@H](C)CO)C[C@H](C)[C@@H](CN(C)Cc2ccc4c(c2)OCO4)O3)cc1 | 14.1 µM |
| C[C@H](CO)N1C[C@H](C)[C@H](CN(C)Cc2ccc(C(=O)Nc3ccccc3N)cc2)Oc2ccc(NC(=O)Nc3cccc4ccccc34)cc2CC1=O | 10.5 µM |
| C[C@H](CO)N1C[C@H](C)[C@@H](CN(C)Cc2ccc(Oc3ccccc3)cc2)Oc2ccc(NC(=O)C3CCCCC3)cc2CC1=O | 8.63 µM |
| C[C@H](CO)N1C[C@H](C)[C@@H](CN(C)S(=O)(=O)c2ccc(Cl)cc2)Oc2ccc(NC(=O)NC3CCCCC3)cc2CC1=O | 10.3 µM |
| COc1ccc(CC2NCC(O)C2OC(C)=O)cc1 (centres undefined) | 0.275 µM |
| O=C(NCC(c1cccnc1)N1CCN(c2ccc(F)cc2)CC1)c1ccc2c(c1)OCO2 (centres undefined) | 5.7 µM |

| Structure (SMILES) | AC40 |
| --- | --- |
| C[C@@H]1CN([C@H](C)CO)C(=O)c2cccc(NC(=O)Nc3ccc4c(c3)OCO4)c2O[C@H]1CN(C)Cc1ccc(C(=O)Nc2ccccc2N)cc1 | 0.893 µM |
| O=C(Nc1ccc(S(=O)(=O)N2CCCCC2)cc1)C1CCN(C(=O)c2ccco2)CC1 | 5.15 µM |
| CCOC(=O)N1CCN(C(=O)COc2ccc(S(=O)(=O)NC3CCCCC3)cc2C)CC1 | 14.1 µM |
| C[C@H]1CN([C@@H](C)CO)S(=O)(=O)c2ccc(-c3cccc(F)c3)cc2O[C@@H]1CN(C)S(=O)(=O)c1ccc(F)cc1 | 15.5 µM |
| c1ccc(-c2csc3nnc(SCc4ccc5c(c4)OCCO5)n23)cc1 | 3.7 µM |
| CCCCn1c(C(C)NC(=O)c2cccs2)nc2ccccc21 (centres undefined) | 3.75 µM |
| C[C@@H]1CN([C@@H](C)CO)C(=O)Cc2cc(NC(=O)CCCCCC(=O)Nc3ccccc3N)ccc2O[C@@H]1CN(C)CC1CCCCC1 | 7.13 µM |
| O=C(CN1CCC(c2nc3ccccc3s2)CC1)NCc1ccccc1 | 19.3 µM |
| N#CCCCSc1nnc(CSc2nc3ccccc3s2)n1-c1ccccc1 | 9.75 µM |
| C[C@H]1CN([C@@H](C)CO)C(=O)Cc2cc(NS(=O)(=O)c3ccc(Cl)cc3)ccc2O[C@@H]1CN(C)CC1CCCCC1 | 15.1 µM |
| Cc1cccc(C)c1Nc1nnc(SCc2cc([N+](=O)[O-])cc3c2OCOC3)s1 | 3.85 µM |
| Cc1ccc(-c2nnc(CSc3nnc(COc4cccc5ccccc45)n3-c3ccccc3)o2)cc1 | 18.2 µM |
| CC1Cc2ccccc2N1C(=O)CSc1nnc(Cc2ccccc2)n1CCc1ccccc1 (centres undefined) | 8.6 µM |
| N#C[C@@H]1[C@@H](c2ccc(-c3ccc(F)cc3)cc2)[C@H](CO)N1C(=O)Cc1ccccc1 | 9.36 µM |
| C[C@H]1CN([C@@H](C)CO)C(=O)Cc2cc(NC(=O)CCCCCC(=O)Nc3ccccc3N)ccc2O[C@H]1CN(C)Cc1ccccc1 | 3.02 µM |
| Fc1ccc(C2=Nn3c(nnc3-c3n[nH]c4c3CCC4)SC2)cc1 | 1.23 µM |
| CC1(Cc2cccc(F)c2)C(=O)Nc2ccc(S(=O)(=O)NC3CCCCC3)cc21 (centres undefined) | 1.66 µM |
